Measurements as given in patent US20150181873A1, “HERBICIDE-RESISTANT SUNFLOWER PLANTS, POLYNUCLEOTIDES ENCODING HERBICIDE=RESISTANT ACETO HYDROXY ACID SYNTHASE LARGE SUBUNIT PROTEINS, AND METHODS OF USE” (NIDERA S.A., priority 2013, published 2015).

How the values were obtained:
Assay type in all cases: in vivo, Helianthus annuus
[1] = system: Conventional non-Clearfield sunflower variety; test: Greenhouse spray injury rating, conventional variety; conditions: imazapyr 240 gm ai/ha, scale 0-9
Source text: (§1) Sunflower lines S4897, Clearfield® sunflower varieties A, B, C and a conventional non-Clearfield variety were sprayed with three rates of imazamox (Raptor™), 100, 200 and 300 gm ai/ha plus 0.5% Sun It II and two rates of imazapyr (Arsenal™) 160 and 360 gm ai/ha plus 0.5% Sun It II when the plants were at the two to three leaf stage. Ratings were taken at 14 days after application (DAT) for injury. Injury was rated on a scale from 0 to 9 where 0=no injury to 9=dead plant. Twelve plants were sprayed per herbicide/rate treatment. Statistical analysis was conducted with STATGRAPHICS Plus 5.0 by using ANOVA and LSD procedures.
(§2) After plants were sprayed, it was realized that a height difference between S4897 and other sunflower varieties would have impacted the actual herbicide dose that was delivered. The spray boom height had been calibrated against S4897 and since the other varieties were taller and closer to the boom they would have received a greater dose of herbicide. Rates were recalibrated for the other varieties to determine the approximate dose they would have received. Assessments were made as presented in Table 2 since it was not possible to make a direct rate comparison due to the effect of the height. For example injury scores were compare for S4897 treated imazamox rate 100 gm ai/ha to the other varieties treated at 75 gm ai/ha. The treatment dose of 300 gm ai/ha for line S4897 was equivalent to the treatment of 200 gm ai/ha for the other varieties, which […].

[2] = system: sunflower restorer line TH10 (A205V); test: Greenhouse imazapir dose response, TH10; conditions: 14 DAT
Method: A greenhouse study was conducted to quantify and contrast the imazapir sensivity of the mutants A122T and A205V in different genetic backgrounds at the whole plant level in sunflower. Seeds of the different sunflower lines that were used in this study were obtained under field conditions.
Seeds were sown in Petri dishes and, after germination, plantlets were transplanted to pots of 10 cm of diameter in a potting media consisting of equal parts of vermiculite, soil and sand. Plants were grown in a greenhouse under natural light conditions supplemented with 400 W sodium halide lamps to provide a 16 hrs daylength. Day/night temperatures were 25 and 20° C., respectively. At the V2 stage 10 plants of each genotype were randomly assigned to each treatment consisting of […] imazapir doses (0, 40, 80, 160, 240, 320, 400 and 480 g ai/ha), and a zero-time biomass determination. Experiment was arranged as a randomized block design with a full factorial (sunflower line×treatment) arrangement of treatments and 10 replications.
On the day of herbicide application ten plants of each genotype were cut at the cotyledonal node and dried at 60° C. for 48 hrs zero-time for dried weight determination. […] Height was determined as the distance between the cotyledonal node and the apex of each plant. For root biomass determination, each plant was taken from the pot and the potting media was washed out from the roots. Above ground biomass data from each line were converted to biomass accumulation after application by subtracting the appropriate average zero-time biomass from each sample. Dry biomass data were converted to percentages of the untreated control plants within each line to allow direct comparisons between groups.

[3] = system: Clearfield sunflower variety C; test: Greenhouse spray injury rating, Clearfield variety C; conditions: imazapyr 240 gm ai/ha, scale 0-9
Source text: as §1, §2

**Q.** Which results are given for CC(C)C1(C)N=C(c2ncccc2C(=O)O)NC1=O (stereo not drawn) [Imazapyr, imazapyr]?
**A.** Injury at 14 DAT [1]: 8.2 days; Phytotoxicity Index ([2]; 0.5x (40 g ai/ha)): 0; biomass accumulation, % of untreated ([2]; 0.5x (40 g ai/ha)): 99.2%; plant height, % of untreated ([2]; 0.5x (40 g ai/ha)): 99.2%; root dry weight, % of untreated ([2]; 0.5x (40 g ai/ha)): 90.3%; Phytotoxicity Index ([2]; 1x (80 g ai/ha)): 0; biomass accumulation, % of untreated ([2]; 1x (80 g ai/ha)): 85.0%; plant height, % of untreated ([2]; 1x (80 g ai/ha)): 98.1%; root dry weight, % of untreated ([2]; 1x (80 g ai/ha)): 69.9%; Phytotoxicity Index ([2]; 2x (160 g ai/ha)): 3.1; biomass accumulation, % of untreated ([2]; 2x (160 g ai/ha)): 58.1%; plant height, % of untreated ([2]; 2x (160 g ai/ha)): 63.6%; root dry weight, % of untreated ([2]; 2x (160 g ai/ha)): 41.3%; Phytotoxicity Index ([2]; 3x (240 g ai/ha)): 3.9; biomass accumulation, % of untreated ([2]; 3x (240 g ai/ha)): 48.1%; plant height, % of untreated ([2]; 3x (240 g ai/ha)): 51.9%; root dry weight, % of untreated ([2]; 3x (240 g ai/ha)): 42.8%; Phytotoxicity Index ([2]; 4x (320 g ai/ha)): 5.9; biomass accumulation, % of untreated ([2]; 4x (320 g ai/ha)): 28.8%; plant height, % of untreated ([2]; 4x (320 g ai/ha)): 27.5%; root dry weight, % of untreated ([2]; 4x (320 g ai/ha)): 22.3%; Phytotoxicity Index ([2]; 5x (400 g ai/ha)): 6.9; biomass accumulation, % of untreated ([2]; 5x (400 g ai/ha)): 27.4%; plant height, % of untreated ([2]; 5x (400 g ai/ha)): 26.0%; root dry weight, % of untreated ([2]; 5x (400 g ai/ha)): 22.7%; Phytotoxicity Index ([2]; 6x (480 g ai/ha)): 6.7; biomass accumulation, % of untreated ([2]; 6x (480 g ai/ha)): 24.9%; plant height, % of untreated ([2]; 6x (480 g ai/ha)): 29.3%; root dry weight, % of untreated ([2]; 6x (480 g ai/ha)): 16.4%; Injury at 14 DAT [3]: 4.9 c
